“And” between values parts separate entries of the source, which are not always exact repeats. Identical values can stand only once. “Also recorded” adds a separate entry of the source.
Legend:
[1] = system: horses with equine Cushing's disease; assay: Clinical signs in horses with equine Cushing's disease, trilostane once daily in feed for 30 days; assay type: in vivo, horse
Method: (§1) The ability of intermittent administration of Trilostane to block adrenal steroidogenesis was assessed in twenty horses (mean age 21, SD 5.7 years) with equine Cushing's disease. The combined dexamethasone suppression thyrotropin releasing hormone (TRH) stimulation test (17 horses) or TRH stimulation test (3 horses) was used as a standard test of function of the hypothalamic-pituitary-adrenal axis. Serum samples for cortisol analysis were collected via indwelling catheter at 4-hourly intervals over 24 hours on each of the test periods. These were before treatment then at 210 minutes (30 min after I mg i.v. TRH) and 22 hours after […] dexamethasone i.m. Affected horses were treated with 0.4 to 1 mg/kg, (mean 0.5 mg/kg) trilostane administered once daily in feed for a period of 30 days. After 30 days endocrine testing was repeated. Serum cortisol before and after treatment was compared by paired t-test.

[2] = system: ACTH stimulation of the adrenal gland; assay: ACTH stimulation test, serum cortisol in dogs; assay type: in vivo, dog
Method: Dogs were entered into the study sequentially over a period of 2-3.5 years Owners were informed about the experimental nature of the treatment and signed a consent form. The ACTH stimulation test was performed by collection of serum samples before and one hour after intravenous injection of ACTH (Synacthen, Alliance) at a dose of 0.125 mg for dogs weighing less than 15 kg, and 0.25 mg for dogs weighing greater than 15 kg. Cortisol concentration was measured by radioimmunoassay previously validated for dogs Blood for endogenous ACTH was collected into a cooled EDTA tube in ice, centrifuged immediately and the frozen at −20° C. Abdominal ultrasound was performed by an experienced board-certified radiologist and adrenal thickness was assessed as a single measurement made perpendicular to the long axis and was defined as the greatest dorso-ventral dimension.
Dogs with Cushing's disease were given an ACTH stimulation test at 12, 35 and 81 days (average) during a course of treatment with a single daily dose of trilostane of 5-20 mg/kg. […] Thus, trilostane has blunted ACTH stimulation of the adrenal gland.

[3] = system: serum cortisol; assay: Mean serum cortisol over 24 hours (4-hourly samples) in horses with Cushing's disease; assay type: in vivo, horse
Method: as §1

[4] = mean of all horses, once daily 0.4-1.0 mg/k for 30 days

Q: `CC12CCC3C(CC[C@@]45O[C@@H]4C(=O)C(C#N)CC35C)C1CC[C@@H]2O` (stereo partly drawn) [Trilostane, 2α-cyano-4α,5α-epoxyandrostan-17β-ol-3-one] was tested. Which “Lethargy / demeanour after therapy” value ([1]; lethargy present in 19 horses) did it give?
A: The value was “improvement in demeanour was evident in all horses”.

Q: And the “Polyuria and/or polydipsia after treatment” value ([1]; present in 11 horses)?
A: Its value is “reduced ill all”.

Q: And the “Recurrent, chronic or persistent laminitis improved or showed no recurrence” value ([1]; present in 17 horses)?
A: Its value is 14 cases.

Q: What about the “Severe, acute laminitis on presentation, response” value ([1]; three horses, rotation and sinking on radiographs) of the same compound?
A: Its value is “did not respond to trilostane”.

Q: And the Overall clinical response ([1]; trilostane once-per-day)?
A: The Overall clinical response was “a clinical response was observed; also recorded: improvement in most of the clinical signs in all horses”.

Q: What about the “% pre Trilostane Cortisol” value ([2]; 12 days of Trilostane treatment) of the same compound?
A: The value was −29.7%.

Q: And the “Post ACTH stimulation test serum Cortisol” value ([2]; 12 days of Trilostane treatment (5-10 mg/k), 53 dogs)?
A: Its value is 249 nmol/L.

Q: And the “% pre Trilostane Cortisol” value ([2]; 35 days of Trilostane treatment)?
A: The value was −30.0%.

Q: What about the “Post ACTH stimulation test serum Cortisol” value ([2]; 35 days of Trilostane treatment (5-10 mg/k), 59 dogs) of the same compound?
A: Its value is 231 nmol/L.

Q: What about the “% pre Trilostane Cortisol” value ([2]; 81 days of Trilostane treatment) of the same compound?
A: The value was −27.3%.

Q: What about the “Post ACTH stimulation test serum Cortisol” value ([2]; 81 days of Trilostane treatment (5-10 mg/k), 48 dogs) of the same compound?
A: The value was 214 nmol/L.

Q: What about the “Serum cortisol post ACTH as % of the original value” ([2]; first re-examination, all dogs) of the same compound?
A: Its value is “less than 61%”.

Q: What about the “Cortisol response to ACTH, in words” value ([2]; single daily dose 5-20 mg/kg, vs non-treatment controls) of the same compound?
A: The value was “markedly reduced”.

Q: And the “Change of serum cortisol concentrations pre vs post trilostane, in words” value ([3]; horses, once daily dose, 30 days)?
A: Its value is “only a small drop in cortisol levels; also recorded: no apparent change in cortisol concentrations”.

Q: And the “Mean Cortisol concentrations over 24 hrs, POST TREATMENT Mean” value ([3]; individual horses, mean of 6 samples at 4-hourly intervals, after 30 days of oral trilostane)?
A: The value was 108 and 203.7 and 157.3 and 263.3 and 143 and 193 and 122.8 and 134.4 and 112 and 152.3 and 113 and 194.7 and 94.8 and 112.3 and 183.3 and 245.5 and 158 and 164.5 and 160 and 149.8.

Q: What about the “Serum cortisol, Post Trilosane Mean” value ([3]; individual horses, mean of 6 samples over 24 hours, once daily 0.4-1.0 mg/k for 30 days, listed as Trilosane) of the same compound?
A: The value was 108 nmol/L and 203.7 nmol/L and 157.3 nmol/L and 263.3 nmol/L and 143 nmol/L and 193 nmol/L and 122.8 nmol/L and 134.4 nmol/L and 112 nmol/L and 152.3 nmol/L and 113 nmol/L and 194.7 nmol/L and 94.8 nmol/L and 112.3 nmol/L and 183.3 nmol/L and 245.5 nmol/L and 158 nmol/L and 164 nmol/L and 1 nmol/L and 149 nmol/L.

Q: What about the “Serum cortisol, Difference, pre-post” value ([3]; individual horses, once daily 0.4-1.0 mg/k for 30 days, listed as Trilosane) of the same compound?
A: The value was -7.5 nmol/L and -61.2 nmol/L and -0.1 nmol/L and -6.8 nmol/L and 4 nmol/L and -38 nmol/L and -3 nmol/L and -17.1 nmol/L and 11 nmol/L and 10.4 nmol/L and 3.6 nmol/L and 34.6 nmol/L and -2.5 nmol/L and 2.4 nmol/L and -24.5 nmol/L and -80.5 nmol/L and -31.5 nmol/L and 5.5 nmol/L and 15.2 nmol/L and 3.4 nmol/L.

Q: And the “Serum cortisol, Difference, pre-post, group mean” value [3, 4]?
A: Its value is -9.1 ± 26.9 nmol/L.

Q: And the “Serum cortisol, Post Trilosane Mean, group mean” value [3, 4]?
A: Its value is 158.3 nmol/L.
